Experimental data from PMC10076643, “Design, synthesis and anticancer activity studies of 3-(coumarin-3-yl)-acrolein derivatives: Evidenced by integrating network pharmacology and vitro assay” (Frontiers in Pharmacology, 2023).

Legend:
[1] = test system: MCF-7 (human breast cancer cell line); assay: MTT antiproliferative assay, MCF-7; format: cell-based; conditions: MCF7, 72 h
Source text: (§1) All the synthesized compounds were screened for in vitro antiproliferative activity against four human cancer cell lines A549 (human lung cancer cell line), KB (human oral epidermoid carcinoma cell line), Hela (human cervical carcinoma cell line), MCF-7 (human breast cancer cell line) and two human normal cell lines HUVEC (human umbilical vein endothelial cell) and LO2 (human normal hepatocytes) through the 3-(4,5-dimethyl-2-thiazolyl)-2,5-diphenyl-2-H-tetrazolium bromide (MTT) assay.
(§2) Non-small-cell lung cancer (A549), oral epidermoid carcinoma (KB), cervical cancer (Hela) and breast cancer (MCF-7) cells were purchased from the American Type Culture Collection (ATCC, America). Human umbilical vein endothelial cell (HUVEC) and human normal hepatocytes (LO2) cells were provided by Guangzhou Medical University (Guangzhou, China). A549 and KB cells were cultured in RMPI-1640 medium (Gibco, America). Hela, MCF-7 and LO2 cells were cultured in DMEM medium (Gibco, America). HUVEC cells were cultured in Ham’s F-12K medium (Gibco, America). All the mediums were supplemented with 10% fetal bovine serum (FBS) (BI, State of Israel), 100 U/mL penicillin and 100 μg/mL streptomycin (Gibco, America), and all the cells were incubated in a sterile incubator at 37°C in an environment of 5% CO2. The tested compounds were dissolved in dimethyl sulfoxide (DMSO) at a concentration of 10 mM, and then diluted into different concentration of solutions by culture medium. The final concentration of DMSO was <0.01% (v/v) in all drug treatment groups to avoid the toxicity in the biological system. Untreated cells were used as a blank control and 5-fluorouracil treated cells were used as a positive control.
(§3) The incubated tumor cells were planted into 96-well plates (4×10^3 cells/well). After 24 h, the cells were adherent to the wall and treated with the compound 6e in different concentrations (0.78, 1.56, 3.12, 6.25, 12.50, 25.00, and 50.00 μM) for 72 h. Afterwards, the medium was supplemented with 10 µL MTT solution. After 4 h, the culture medium was removed and 100 µL DMSO was added. The absorbance was determined at the wavelength of 540 nm and 655 nm using a microplate reader (BioTek Epoch, America). The results were collected from three independent experiments. The IC50 was then calculated by using GraphPad Prism Software (version 7.0) and non-linear regression (curve fit).

[2] = test system: KB (human oral epidermoid carcinoma cell line); assay: MTT antiproliferative assay, KB; format: cell-based; conditions: Homo sapiens; MTT, 72 h
Source text: as §1, §2, §3

[3] = test system: LO2 (human normal hepatocytes); assay: MTT antiproliferative assay, LO2 normal cells; format: cell-based; conditions: Hepatocyte, 72 h
Source text: as §1, §2, §3

[4] = test system: Hela (human cervical carcinoma cell line); assay: MTT antiproliferative assay, Hela; format: cell-based; conditions: 72 h
Source text: as §1, §2, §3

[5] = test system: HUVEC (human umbilical vein endothelial cell); assay: MTT antiproliferative assay, HUVEC normal cells; format: cell-based; conditions: 72 h
Source text: as §1, §2, §3

[6] = test system: A549 (human lung cancer cell line); assay: MTT antiproliferative assay, A549; format: cell-based; conditions: for IC50: Homo sapiens, A549, MTT, 72 h
Source text: as §1, §2, §3

[7] = test system: various human cancer cells; design: method as in Yan et al., 2022; conditions: ref Yan et al., 2022; read-out: IC50 values, anti-proliferative activities towards various human cancer cells; cited from earlier work

Compound	IC50 [1]	IC50 [2]	IC50 [4]	melting point	IC50 [6]	IC50 [3]	IC50 [5]	more potent than 5a and 5-FU ([6]; A549 cells, relative to 5a and 5-FU)	IC50 [7]
O=CC=C(Cl)c1cc2ccc(O)cc2oc1=O [Compound 5b, 3-Chloro-3-(7-hydroxy-2-oxo-2H-chromen-3-yl)acrylaldehyde]	6.74 ± 0.64 µM	> 100 µM	> 100 µM	204 to 205 °C	> 100 µM	> 100 µM	> 100 µM	–	–
O=CC=C(Cl)c1cc2ccccc2oc1=O [Compound 5a, 3-Chloro-3-(2-oxo-2H-chromen-3-yl)acrylaldehyde]	3.55 ± 0.17 µM	1.3 ± 0.02 µM	1.01 ± 0.28 µM	167 to 169 °C	7.97 ± 0.01 µM	40.34 ± 0.02 µM	22.8 ± 0.35 µM	–	–
Cc1ccc2oc(=O)c(C(Cl)=CC=O)cc2c1 [Compound 5f, 3-Chloro-3-(6-methyl-2-oxo-2H-chromen-3-yl)acrylaldehyde]	20.1 ± 0.32 µM	2.22 ± 0.04 µM	3.82 ± 0.11 µM	179 to 181 °C	4.57 ± 0.01 µM	25.01 ± 0.03 µM	27.38 ± 0.24 µM	–	–
O=CC=C(Cl)c1cc2ccc(Br)cc2oc1=O [Compound 5d, 3-(7-Bromo-2-oxo-2H-chromen-3-yl)-3-chloroacrylaldehyde]	4.23 ± 0.15 µM	1.12 ± 0.03 µM	1.36 ± 0.43 µM	182 to 183 °C	0.7 ± 0.05 µM	42.97 ± 0.04 µM	10.52 ± 0.02 µM	10 fold	–
O=c1[nH]cc(F)c(=O)[nH]1 [5-FU, 5-Fluorouracil, reference compound]	19.2 ± 3.29 µM	5.75 ± 2.23 µM	1.37 ± 1.72 µM	–	7.41 ± 0.09 µM	10.68 ± 0.03 µM	4.08 ± 0.06 µM	–	–
COc1ccc2c(/C=C(\C)C(=O)c3cc(OC)c(OC)c([Se]C)c3)c[nH]c2c1 [compound J]	–	–	–	–	–	–	–	–	0.008 to 0.035 µM
O=CC=C(Cl)c1cc2cc(O)ccc2oc1=O [Compound 5e, 3-Chloro-3-(6-hydroxy-2-oxo-2H-chromen-3-yl)acrylaldehyde]	8.71 ± 0.31 µM	3.23 ± 0.3 µM	> 100 µM	250 to 252 °C	6.67 ± 0.01 µM	14.11 ± 0.04 µM	34.84 ± 0.11 µM	–	–
CCN(CC)c1ccc2cc(C(Cl)=CC=O)c(=O)oc2c1 [Compound 5c, 3-Chloro-3-(7-(diethylamino)-2-oxo-2H-chromen-3-yl)acrylaldehyde]	18.99 ± 0.18 µM	3.15 ± 0.09 µM	4.85 ± 0.19 µM	206 to 208 °C	7.51 ± 0.02 µM	52.65 ± 0.07 µM	6.42 ± 0.51 µM	–	–
O=CC=C(Cl)c1cc2cc(Br)ccc2oc1=O [Compound 5g, 3-(6-Bromo-2-oxo-2H-chromen-3-yl)-3-chloroacrylaldehyde]	9.25 ± 0.1 µM	0.87 ± 0.01 µM	13.4 ± 0.22 µM	199 to 201 °C	2.45 ± 0.01 µM	66.36 ± 0.09 µM	10.9 ± 0.02 µM	–	–

Further lines, with some results ahead:

IC50 [1]	IC50 [2]	IC50 [4]	melting point	IC50 [6]	Compound	IC50 [3]	IC50 [5]	more potent than 5a and 5-FU ([6]; A549 cells, relative to 5a and 5-FU)	IC50 [7]
51.63 ± 0.13 µM	4.28 ± 0.02 µM	22.7 ± 0.21 µM	149 to 151 °C	5.61 ± 0.01 µM	CC(C)Oc1ccc2cc(C(Cl)=CC=O)c(=O)oc2c1 [Compound 6d, 3-Chloro-3-(7-isopropoxy-2-oxo-2H-chromen-3-yl)acrylaldehyde]	33.27 ± 0.02 µM	31.92 ± 0.07 µM	–	–
12.4 ± 0.49 µM	3.41 ± 0.4 µM	> 100 µM	202 to 203 °C	2.78 ± 0.01 µM	COc1ccc2cc(C(Cl)=CC=O)c(=O)oc2c1 [Compound 6a, 3-Chloro-3-(7-methoxy-2-oxo-2H-chromen-3-yl)acrylaldehyde]	61.04 ± 0.03 µM	10.09 ± 0.07 µM	–	–
23.29 ± 0.2 µM	> 100 µM	2.91 ± 0.17 µM	195 to 196 °C	11.34 ± 0.07 µM	CCOc1ccc2cc(C(Cl)=CC=O)c(=O)oc2c1 [Compound 6b, 3-Chloro-3-(7-ethoxy-2-oxo-2H-chromen-3-yl)acrylaldehyde]	> 100 µM	> 100 µM	–	–
> 100 µM	> 100 µM	> 100 µM	250 to 252 °C	> 100 µM	O=CC=C(Cl)c1cc2ccc(OCc3ccc([N+](=O)[O-])cc3)cc2oc1=O [Compound 6f, 3-Chloro-3-(7-((4-nitrobenzyl)oxy)-2-oxo-2H-chromen-3-yl)acrylaldehyde]	> 100 µM	> 100 µM	–	–
1.73 ± 0.01 µM	4.54 ± 0.11 µM	> 100 µM	150 to 152 °C	6.28 ± 0.04 µM	CCCOc1ccc2cc(C(Cl)=CC=O)c(=O)oc2c1 [Compound 6c, 3-Chloro-3-(2-oxo-7-propoxy-2H-chromen-3-yl)acrylaldehyde]	43.52 ± 0.03 µM	53.92 ± 0.46 µM	–	–
5.13 ± 0.07 µM	> 100 µM	> 100 µM	217 to 219 °C	> 100 µM	O=CC=C(Cl)c1cc2ccc(OCc3cccc(Br)c3)cc2oc1=O [Compound 6g, 3-(7-((3-Bromobenzyl)oxy)-2-oxo-2H-chromen-3-yl)-3-chloroacrylaldehyde]	> 100 µM	> 100 µM	–	–
